Assay results reported in patent publication US9750747B2, “Treatments involving eslicarbazepine acetate or eslicarbazepine” (BAIL-PORTELA & CA, S.A., priority 2011, dated 2017).
“Also recorded” adds a separate entry of the source. Like-named read-outs stand apart in the source and are kept apart here. Each block holds one molecule with its values, some of them ahead of it.

Columns and labels:
[1] = biological target: T1, α1β2γ2 GABA receptors (Homo sapiens, UniProt P14867+P18507+P47870); test: whole-cell patch-clamp, sub-maximal GABA inward currents in stably transfected Ltk cells; type: cell-based
T1 construct: host or cells: Ltk cells, expression induced with dexamethasone
Description: (§1) Carbamazepine (CBZ) aggravates absence seizures in ‘generalized absence epilepsy rats from. Strasbourg’. One putative mechanism for the aggravation is through its reported potentiation of GABAA currents. A study was carried out to determine the effect of eslicarbazepine, R-licarbazepine and carbamazepine on sub-maximal GABA currents in Ltk cells stably expressing α1β2γ2, α2β2γ2, α3β2γ2 or α5β2γ2 GABA-receptors. The whole-cell patch-clamp technique was used to investigate the effects of the test compounds on GABAA receptors.
(§2) Used Ltk cells were stably transfected with recombinant GABAA cDNAs: α1β2γ2, α2β2γ2, α3β2γ2 or α5β2γ2 (B'SYS GmbH, Switzerland). […] For the electrophysiological experiments cells were cultivated, at a density that enabled single cells to be measured, in medium without antibiotics or antimycotics. Cells were tested 24-48 hours following induction of transgene expression with dexamethasone.
(§3) The whole-cell patch clamp recordings from transfected Ltk cells (voltage-clamped at a holding potential of −80 mV) were made using a EPC-7, HEKA Electronics amplifier. GABA inward-currents were measured upon application of 1 or 2 μM GABA to patch-clamped cells (at an EC5).
(§4) Analysis of Variance (ANOVA) with post test multisample comparison (Dunnett) was conducted with GraphPad Prism 4 Software.

[2] = biological target: T2, α2β2γ2 GABA receptors (Homo sapiens, UniProt P18507+P47869+P47870); test: as above; type: cell-based
T2 construct: host or cells: Ltk cells, expression induced with dexamethasone
Description: as §1, §2, §3, §4

[3] = biological target: T3, α3β2γ2 GABA receptors (Homo sapiens, UniProt P18507+P34903+P47870); test: as above; type: cell-based
T3 construct: host or cells: Ltk cells, expression induced with dexamethasone
Description: as §1, §2, §3, §4

[4] = biological target: T4, α5β2γ2 GABA receptors (Homo sapiens, UniProt P18507+P31644+P47870); test: as above; type: cell-based
T4 construct: host or cells: Ltk cells, expression induced with dexamethasone
Description: as §1, §2, §3, §4

[5] = biological target: T5, human T-type calcium channels hCav3.2 (Homo sapiens, UniProt O95180); test: whole-cell patch-clamp, calcium peak currents in stably transfected HEK 293 cells; type: cell-based; settings: for Relative current amplitude (%): hCav3.2 in HEK 293 cells; for IC50: two site binding model
T5 construct: expressed in transfected cells; host or cells: HEK 293 cells (European Collection of Animal Cell Culture)
Description: A study was carried out to determine the effect of eslicarbazepine.
Cells were stably transfected with hCav3.2 cDNA.
Calcium inward currents were measured upon depolarization of the cell membrane to −25 mV for 50 ms from a holding potential of −80 mV. This voltage protocol was run at intervals of 10 s until stabilization of evoked hCav3.2 currents. […] Vehicle was either bath solution or 0.2% DMSO.
Analysis of variance (ANOVA) with post test multisample comparison (Dunnett) was conducted with GraphPad Prism 4 Software. IC50 were calculated with the equation: […]

[6] = tested on: α1β2γ2, α2β2γ2, α3β2γ2 or α5β2γ2 GABA-receptors; test: overall effect on sub-maximal GABA currents (summary of Example 1); type: cell-based; settings: Ltk cells, all four receptor subtypes
Description: as §1
Used Ltk cells were stably transfected with recombinant GABAA cDNAs: α1β2γ2, α2β2γ2, α3β2γ2 or α5β2γ2 (B'SYS GmbH, Switzerland). Cells were maintained in a humidified atmosphere (95% relative humidity) with 5% CO2 and were grown in D-MEM/F-12 (1×, liquid, with GlutaMax 1) supplemented with 9% foetal bovine serum and 0.9% Penicillin/Streptomycin solution (Gibco BRL). For the electrophysiological experiments cells were cultivated, at a density that enabled single cells to be measured, in medium without antibiotics or antimycotics. Cells were tested 24-48 hours following induction of transgene expression with dexamethasone.
Cells were continuously perfused with bath solution (NaCl 137 mM, KCl 4 mM, CaCl2 1.8 mM, MgCl2 1 mM, D-Glucose 10 mM HEPES 10 mM, pH 7.4). […] GABA inward-currents were measured upon application of 1 or 2 μM GABA to patch-clamped cells (at an EC5). […]

[7] = tested on: absence seizure; test: mouse absence seizure models (γ-butyrolactone induced, SSADH null, stargazer, C3H/He); type: in vivo; settings: mice models (a)-(d)
[8] = 50 μM with GABA at EC5, Ltk cells, Table 2
[9] = 100 μM with GABA at EC5, Ltk cells, Table 2
[10] = 250 μM with GABA at EC5, Ltk cells, Table 2
[11] = 500 μM with GABA at EC5, Ltk cells, Table 2
[12] = 1000 μM with GABA at EC5, Ltk cells, Table 2
[13] = high affinity fit, read-out: hCav3.2 IC50 (μM) High affinity
[14] = low affinity fit, read-out: hCav3.2 IC50 (μM) Low affinity
[15] = 50 μM with GABA at EC5, Ltk cells, Table 1
[16] = 100 μM with GABA at EC5, Ltk cells, Table 1
[17] = 250 μM with GABA at EC5, Ltk cells, Table 1
[18] = 500 μM with GABA at EC5, Ltk cells, Table 1

T5 sequence (O95180 whole entry): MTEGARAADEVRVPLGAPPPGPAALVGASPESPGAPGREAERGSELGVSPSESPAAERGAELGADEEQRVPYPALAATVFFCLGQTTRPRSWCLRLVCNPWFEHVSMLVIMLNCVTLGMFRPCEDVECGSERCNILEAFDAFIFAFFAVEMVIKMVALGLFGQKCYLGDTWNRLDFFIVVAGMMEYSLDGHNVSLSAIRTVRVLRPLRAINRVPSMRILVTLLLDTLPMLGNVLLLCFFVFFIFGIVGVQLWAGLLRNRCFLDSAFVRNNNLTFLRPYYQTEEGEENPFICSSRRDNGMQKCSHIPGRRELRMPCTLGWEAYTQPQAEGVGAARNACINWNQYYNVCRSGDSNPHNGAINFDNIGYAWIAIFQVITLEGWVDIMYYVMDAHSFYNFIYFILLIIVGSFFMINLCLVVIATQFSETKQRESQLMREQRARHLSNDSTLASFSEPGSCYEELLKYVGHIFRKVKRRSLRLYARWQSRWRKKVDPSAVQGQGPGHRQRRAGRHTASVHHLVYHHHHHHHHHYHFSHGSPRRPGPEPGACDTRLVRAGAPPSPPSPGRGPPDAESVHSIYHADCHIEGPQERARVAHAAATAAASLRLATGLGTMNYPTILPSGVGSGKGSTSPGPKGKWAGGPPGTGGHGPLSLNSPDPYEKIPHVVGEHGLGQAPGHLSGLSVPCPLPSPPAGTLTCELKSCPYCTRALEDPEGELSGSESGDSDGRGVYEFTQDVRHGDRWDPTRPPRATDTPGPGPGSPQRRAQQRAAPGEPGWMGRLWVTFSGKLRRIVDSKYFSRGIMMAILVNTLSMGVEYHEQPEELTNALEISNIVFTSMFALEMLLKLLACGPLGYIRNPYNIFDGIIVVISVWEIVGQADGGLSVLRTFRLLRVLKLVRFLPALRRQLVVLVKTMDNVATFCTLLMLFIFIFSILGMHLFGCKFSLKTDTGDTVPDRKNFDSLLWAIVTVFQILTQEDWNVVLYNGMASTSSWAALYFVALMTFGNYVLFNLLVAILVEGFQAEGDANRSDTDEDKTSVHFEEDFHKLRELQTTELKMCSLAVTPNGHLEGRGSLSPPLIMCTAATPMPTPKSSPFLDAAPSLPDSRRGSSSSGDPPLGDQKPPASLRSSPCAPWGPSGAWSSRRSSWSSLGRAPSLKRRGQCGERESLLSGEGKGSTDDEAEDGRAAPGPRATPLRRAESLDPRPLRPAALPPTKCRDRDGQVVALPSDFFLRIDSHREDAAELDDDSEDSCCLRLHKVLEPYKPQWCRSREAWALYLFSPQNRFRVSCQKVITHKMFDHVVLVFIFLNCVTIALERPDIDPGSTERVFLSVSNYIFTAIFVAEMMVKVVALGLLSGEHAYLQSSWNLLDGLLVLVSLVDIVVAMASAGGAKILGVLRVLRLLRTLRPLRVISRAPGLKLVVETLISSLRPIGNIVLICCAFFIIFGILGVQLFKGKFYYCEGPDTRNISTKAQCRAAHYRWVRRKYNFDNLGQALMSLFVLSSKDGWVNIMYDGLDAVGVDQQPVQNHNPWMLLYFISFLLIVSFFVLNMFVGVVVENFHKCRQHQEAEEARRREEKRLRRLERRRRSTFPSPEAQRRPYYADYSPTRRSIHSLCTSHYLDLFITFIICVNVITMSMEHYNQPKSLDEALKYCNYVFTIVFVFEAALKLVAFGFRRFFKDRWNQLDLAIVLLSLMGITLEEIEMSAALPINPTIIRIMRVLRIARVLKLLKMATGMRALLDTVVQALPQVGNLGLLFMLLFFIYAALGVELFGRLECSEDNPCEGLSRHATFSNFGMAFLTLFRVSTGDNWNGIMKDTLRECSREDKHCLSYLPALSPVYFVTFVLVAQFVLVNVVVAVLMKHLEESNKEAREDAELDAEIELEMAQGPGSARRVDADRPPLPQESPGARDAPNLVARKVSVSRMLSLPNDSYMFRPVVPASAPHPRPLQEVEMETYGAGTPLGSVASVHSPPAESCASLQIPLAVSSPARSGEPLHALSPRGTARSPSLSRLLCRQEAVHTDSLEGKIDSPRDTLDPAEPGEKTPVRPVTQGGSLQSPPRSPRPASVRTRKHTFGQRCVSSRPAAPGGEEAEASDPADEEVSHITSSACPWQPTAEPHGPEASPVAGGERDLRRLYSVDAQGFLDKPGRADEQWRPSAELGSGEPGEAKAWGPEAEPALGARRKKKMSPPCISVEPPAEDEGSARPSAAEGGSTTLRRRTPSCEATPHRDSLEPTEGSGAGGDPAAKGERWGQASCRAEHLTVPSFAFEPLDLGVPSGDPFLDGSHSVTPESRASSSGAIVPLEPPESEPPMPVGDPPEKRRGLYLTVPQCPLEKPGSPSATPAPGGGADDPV
T1 sequence (P14867 28-456): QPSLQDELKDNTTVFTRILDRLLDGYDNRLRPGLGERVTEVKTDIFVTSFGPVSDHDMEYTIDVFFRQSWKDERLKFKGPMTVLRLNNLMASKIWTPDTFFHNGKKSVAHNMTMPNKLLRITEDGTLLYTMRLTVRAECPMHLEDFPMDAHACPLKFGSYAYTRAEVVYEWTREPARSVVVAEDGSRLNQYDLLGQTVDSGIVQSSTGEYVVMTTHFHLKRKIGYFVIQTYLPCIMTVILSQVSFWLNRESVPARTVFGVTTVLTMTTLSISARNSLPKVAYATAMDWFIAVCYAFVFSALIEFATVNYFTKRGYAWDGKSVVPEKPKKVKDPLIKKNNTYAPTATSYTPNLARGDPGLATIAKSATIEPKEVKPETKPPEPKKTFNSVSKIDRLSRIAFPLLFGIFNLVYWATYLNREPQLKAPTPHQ
T1 sequence (P47870 25-512 limits assumed): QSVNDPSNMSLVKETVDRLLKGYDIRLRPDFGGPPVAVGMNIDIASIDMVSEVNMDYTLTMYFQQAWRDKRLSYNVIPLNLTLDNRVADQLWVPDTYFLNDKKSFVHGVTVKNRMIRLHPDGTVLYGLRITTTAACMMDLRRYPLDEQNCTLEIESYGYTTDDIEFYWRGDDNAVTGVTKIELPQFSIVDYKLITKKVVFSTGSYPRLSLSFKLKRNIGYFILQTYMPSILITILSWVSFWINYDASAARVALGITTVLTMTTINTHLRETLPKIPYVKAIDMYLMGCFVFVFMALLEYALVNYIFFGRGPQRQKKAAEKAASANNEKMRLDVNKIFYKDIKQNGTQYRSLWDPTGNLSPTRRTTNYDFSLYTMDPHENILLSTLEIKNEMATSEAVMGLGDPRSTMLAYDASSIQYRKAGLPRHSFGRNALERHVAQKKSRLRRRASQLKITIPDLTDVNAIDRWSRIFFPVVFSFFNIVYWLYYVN
T1 sequence (P18507 40-475): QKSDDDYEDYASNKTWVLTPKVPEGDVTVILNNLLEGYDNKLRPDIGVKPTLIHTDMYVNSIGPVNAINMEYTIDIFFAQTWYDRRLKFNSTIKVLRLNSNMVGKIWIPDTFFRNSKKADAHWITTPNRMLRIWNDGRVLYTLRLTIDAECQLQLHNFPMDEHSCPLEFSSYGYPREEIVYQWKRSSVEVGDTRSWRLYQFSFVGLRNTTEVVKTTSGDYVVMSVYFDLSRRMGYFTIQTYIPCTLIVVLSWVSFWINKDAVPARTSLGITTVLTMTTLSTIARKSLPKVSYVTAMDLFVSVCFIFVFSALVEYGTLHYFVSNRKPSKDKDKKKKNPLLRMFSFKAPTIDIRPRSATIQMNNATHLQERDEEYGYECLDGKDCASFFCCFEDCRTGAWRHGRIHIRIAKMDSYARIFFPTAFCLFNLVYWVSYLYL
T4 sequence (P31644 32-462): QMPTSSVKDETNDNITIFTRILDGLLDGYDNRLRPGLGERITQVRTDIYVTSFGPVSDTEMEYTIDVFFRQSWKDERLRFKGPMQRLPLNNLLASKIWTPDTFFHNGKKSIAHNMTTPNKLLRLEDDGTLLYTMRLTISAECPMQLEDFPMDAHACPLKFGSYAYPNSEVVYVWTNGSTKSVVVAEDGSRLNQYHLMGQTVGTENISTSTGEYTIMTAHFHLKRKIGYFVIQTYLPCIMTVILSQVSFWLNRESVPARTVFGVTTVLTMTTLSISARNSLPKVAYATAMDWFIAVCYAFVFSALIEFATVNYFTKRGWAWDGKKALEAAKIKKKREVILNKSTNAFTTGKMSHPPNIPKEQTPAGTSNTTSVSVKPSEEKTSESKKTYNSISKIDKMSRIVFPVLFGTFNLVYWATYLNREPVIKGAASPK
T4 sequence (P47870 25-512 limits assumed): as the sequence (P47870 25-512 limits assumed) above
T4 sequence (P18507 40-475): as the sequence (P18507 40-475) above
T3 sequence (P34903 29-492): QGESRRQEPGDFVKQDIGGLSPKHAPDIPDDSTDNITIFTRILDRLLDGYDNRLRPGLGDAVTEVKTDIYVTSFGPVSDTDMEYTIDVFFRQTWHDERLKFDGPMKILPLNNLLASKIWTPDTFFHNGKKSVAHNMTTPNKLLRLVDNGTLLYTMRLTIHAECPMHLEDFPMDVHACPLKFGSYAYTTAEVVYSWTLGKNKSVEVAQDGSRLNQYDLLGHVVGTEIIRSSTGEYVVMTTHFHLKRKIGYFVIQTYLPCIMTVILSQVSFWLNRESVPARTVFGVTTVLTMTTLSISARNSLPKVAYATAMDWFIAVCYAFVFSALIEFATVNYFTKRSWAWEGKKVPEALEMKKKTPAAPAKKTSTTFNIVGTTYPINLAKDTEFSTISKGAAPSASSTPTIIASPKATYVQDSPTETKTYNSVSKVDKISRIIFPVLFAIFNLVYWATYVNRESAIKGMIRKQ
T3 sequence (P47870 25-512 limits assumed): as the sequence (P47870 25-512 limits assumed) above
T3 sequence (P18507 40-475): as the sequence (P18507 40-475) above

SMILES: NC(=O)N1c2ccccc2C=Cc2ccccc21 [Carbamazepine, 5H-dibenzo[b,f]azepine-5-carboxamide]
Current stimulation (%) α1β2γ2 [1, 8]: 104.30 ± 5.02%
Current stimulation (%) α1β2γ2 [1, 9]: 117.38 ± 4.94%
Current stimulation (%) α1β2γ2 [1, 10]: 115.68 ± 5.31%
Current stimulation (%) α1β2γ2 [1, 11]: 132.42 ± 5.31 %
Current stimulation (%) α1β2γ2 [1, 12]: 150.26 ± 15.48 %
Current stimulation (%) α2β2γ2 [2, 8]: 97.94 ± 3.34%
Current stimulation (%) α2β2γ2 [2, 9]: 111.36 ± 2.65%
Current stimulation (%) α2β2γ2 [2, 10]: 109.03 ± 7.61%
Current stimulation (%) α2β2γ2 [2, 11]: 103.60 ± 7.61%
Current stimulation (%) α2β2γ2 [2, 12]: 104.18 ± 2.66%
Current stimulation (%) α3β2γ2 [3, 8]: 93.32 ± 4.07%
Current stimulation (%) α3β2γ2 [3, 9]: 112.76 ± 5.40%
Current stimulation (%) α3β2γ2 [3, 10]: 131.06 ± 9.39%
Current stimulation (%) α3β2γ2 [3, 11]: 120.27 ± 11.81%
Current stimulation (%) α3β2γ2 [3, 12]: 166.66 ± 21.00 %
Current stimulation (%) α5β2γ2 [4, 8]: 103.82 ± 1.50%
Current stimulation (%) α5β2γ2 [4, 9]: 103.83 ± 4.53%
Current stimulation (%) α5β2γ2 [4, 10]: 93.59 ± 4.30%
Current stimulation (%) α5β2γ2 [4, 11]: 80.65 ± 5.86%
Current stimulation (%) α5β2γ2 [4, 12]: 63.01 ± 4.50 %
effect on hCav3.2 calcium peak currents (in words) [5]: dose dependently inhibited
Relative current amplitude (%) ([5]; 25 μM): 87.58 ± 2.94%
Relative current amplitude (%) ([5]; 50 μM): 76.53 ± 5.48%
Relative current amplitude (%) ([5]; 100 μM): 69.98 ± 4.47%
Relative current amplitude (%) ([5]; 250 μM): 59.47 ± 6.06 %
Relative current amplitude (%) ([5]; 500 μM): 45.66 ± 7.45 %
IC50 [5, 13]: 27.1 µM
IC50 [5, 14]: 711 µM

effect on hCav3.2 calcium peak currents (in words) [5]: dose dependently inhibited
SMILES: COCC(=O)O[C@]1(CCN(C)CCCc2nc3ccccc3[nH]2)CCc2cc(F)ccc2[C@@H]1C(C)C [Mibefradil]

SMILES: NC(=O)N1c2ccccc2C[C@H](O)c2ccccc21 [Eslicarbazepine, (S)-10-hydroxy-10,11-dihydro-5H-dibenz[b,f]azepine-5-carboxamide]
Current stimulation (%) α1β2γ2 [1, 15]: 103.3 ± 1.96%
Current stimulation (%) α1β2γ2 [1, 16]: 95.92 ± 0.83%
Current stimulation (%) α1β2γ2 [1, 17]: 97.82 ± 1.13%
Current stimulation (%) α1β2γ2 [1, 18]: 99.39 ± 0.80%
Current stimulation (%) α2β2γ2 [2, 15]: 91.58 ± 2.69%
Current stimulation (%) α2β2γ2 [2, 16]: 97.04 ± 2.65%
Current stimulation (%) α2β2γ2 [2, 17]: 88.56 ± 3.24 %
Current stimulation (%) α2β2γ2 [2, 18]: 89.80 ± 4.01%
Current stimulation (%) α3β2γ2 [3, 15]: 95.61 ± 4.75%
Current stimulation (%) α3β2γ2 [3, 16]: 97.93 ± 4.22%
Current stimulation (%) α3β2γ2 [3, 17]: 96.44 ± 2.16%
Current stimulation (%) α3β2γ2 [3, 18]: 91.63 ± 5.56%
Current stimulation (%) α5β2γ2 [4, 15]: 95.18 ± 2.18%
Current stimulation (%) α5β2γ2 [4, 16]: 93.89 ± 0.60%
Current stimulation (%) α5β2γ2 [4, 17]: 93.52 ± 1.75%
Current stimulation (%) α5β2γ2 [4, 18]: 89.65 ± 3.44%
effect on hCav3.2 calcium peak currents (in words) [5]: dose dependently inhibited; also recorded: effectively inhibits high and low affinity hCav3.2 inward currents
Relative current amplitude (%) ([5]; 0.3 μM): 86.99 ± 1.56 %
Relative current amplitude (%) ([5]; 1 μM): 81.61 ± 1.31 %
Relative current amplitude (%) ([5]; 3 μM): 76.21 ± 1.61 %
Relative current amplitude (%) ([5]; 10 μM): 71.22 ± 2.40 %
Relative current amplitude (%) ([5]; 30 μM): 73.04 ± 1.64 %
Relative current amplitude (%) ([5]; 50 μM): 61.44 ± 4.96 %
Relative current amplitude (%) ([5]; 100 μM): 54.68 ± 6.35 %
Relative current amplitude (%) ([5]; 250 μM): 46.92 ± 6.64 %
Relative current amplitude (%) ([5]; 500 μM): 51.83 ± 4.77 %
Relative current amplitude (%) ([5]; 1000 μM): 45.48 ± 4.94 %
IC50 [5, 13]: 0.43 µM
IC50 [5, 14]: 62.6 µM
effects upon sub-maximal GABA currents (in words) [6]: devoid of effects
controlling seizures in mouse absence seizure models [7]: effective in controlling seizures
